Reference: article PMC12475274, “Harnessing indole scaffolds to identify small-molecule IRE1α inhibitors modulating XBP1 mRNA splicing” (Nature Communications, 2025)
Values joined by “and” are separate entries in the source; they are usually repeats but may differ in a detail not shown here. Equal values may be shown once.

Assays:
[1] = test system: IRE1α; conditions: Fig. 1b; read-out: IC50 of reported IRE1α inhibitor; cited from earlier work
[2] = biological target: T1, dephosphorylated IRE1α (547–977) (Homo sapiens, UniProt O75460); assay: FRET-based IRE1α RNase activity assay, dephosphorylated IRE1α; format: biochemical
T1 construct: Human IRE1α kinase and RNase domain (residues 547–977) was subcloned into pLIB plasmid; His tag (with TEV cleavage site) (N, cleaved yes); made in house; host or cells: Sf9 insect cells, baculovirus (Bac-to-Bac)
Procedure, shortened: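 Inhibition came from the linear-phase cleavage rate of 100 nM XBP1-sequence FAM/BHQ1 RNA, monitored at 485/535 nm over one hour and fitted to IC50. Enzyme: 40 nM unphosphorylated IRE1α kinase-RNase domain (547–977), exposed to compound for 30 min at room temperature before substrate, in HEPES pH 7.5 buffer.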

[3] = biological target: T2, phosphorylated IRE1α (p-IRE1α) (Homo sapiens, UniProt O75460); assay: FRET-based IRE1α RNase activity assay, phosphorylated IRE1α; format: biochemical
T2 construct: Human IRE1α kinase and RNase domain (residues 547–977) was subcloned into pLIB plasmid; His tag (with TEV cleavage site) (N, cleaved yes); made in house; host or cells: Sf9 insect cells, baculovirus (Bac-to-Bac)
Procedure, shortened: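 Cleavage of a dual-labeled XBP1 RNA (200 nM) was followed kinetically over 1 h at room temperature at 485/535 nm, with initial slopes giving percent inhibition and IC50. Enzyme was 4 nM phosphorylated human IRE1α 547–977 from insect cells, incubated with compound for 30 min before substrate; buffer 20 mM HEPES pH 7.5, KOAc, MgOAc2, DTT, Triton X-100.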

[4] = biological target: T3, p-IRE1α dimerization and oligomerization (Homo sapiens, UniProt O75460); assay: DSS cross-linking assay with mass photometry; conditions: 100 μM compound, DSS crosslinking
T3 construct: Human IRE1α kinase and RNase domain (residues 547–977) was subcloned into pLIB plasmid; His tag (with TEV cleavage site) (N, cleaved yes); made in house; host or cells: Sf9 insect cells, baculovirus (Bac-to-Bac)
Experimental: Phosphorylated IRE1α (p-IRE1α) and compounds were incubated 30 min at room temperature, with a final concentration of 2 μM p-IRE1α and 100 μM of the indicated compound, in a buffer containing 20 mM HEPES, pH 7.5, 50 mM KOAc, 1 mM MgOAc2, 1 mM DTT, 0.05% v/v TritonX-100, in a total reaction volume of 20 μL. After incubation, DSS (disuccinimidyl suberate, Thermo Fisher, A39267) was added to the reaction at a final concentration of 250 μM to induce crosslinking at room temperature for 1 h. Tris (pH 7.5) was added to a final concentration of 50 mM to stop the reaction. Samples were further measured with a mass photometry instrument (Refeyn Ltd). The PBS buffer was used for the mass photometry measurement. The instrument was calibrated with BSA and TG protein mixture in PBS. Samples were diluted to a protein concentration of 100 nM with buffer before measurement. Then, 18 μL PBS buffer was added to the center of the gasket on the coverslips to check and find the focus. Afterward, 2 μL of the diluted sample was added, mixed, and measured. Data were analyzed using Discover MP software, for each sample, results from 3 individual measurements were merged.

[5] = test system: XBP1 mRNA splicing in A549 cells; assay: RT-qPCR of ER stress-induced XBP1 mRNA splicing, A549; format: cell-based, human; conditions: Fig. 7c, 0.5μg/mL Tm, individual replicates
Experimental: (§1) A549 cells, HCT 116 cells, and HT-29 cells were collected and seeded in 6-well plates at a density of 5 × 10^5 cells per well and cultured overnight to attach, then treated with compound or DMSO for 2 h, then 0.5 μg/mL final concentration of tunicamycin (Tm, MP Biomedi, 0215002805) were added to induce the ER stress for 2 h. After treatment, total RNA was purified using an RNeasy mini kit (Qiagen, 74106). 500 ng of total RNA was used for reverse transcription using the High-Capacity cDNA Reverse Transcription Kits (Thermo Fisher, 4368814). cDNA was diluted 1: 5 using RNase-free water, and 1 μL CDNA was used for each qPCR reaction. The qPCR was performed using PowerUp™ SYBR™ Green Master Mix (Thermo Fisher, A25742) with 10 µL reaction volume using Bio-Rad CFX96 Real-Time PCR Detection System following the standard cycling mode (primer Tm ≥ 60 °C) on the manufacturer’s protocol. Data was analyzed using the 2^- ΔΔCt method. The primers used are listed in Supplementary Table S3. The inhibition % was calculated by using the equation: inhibition% = 100× (normalized Tm control - normalized of the sample)/(normalized Tm control - normalized DMSO control). Tm control: Cells treated with tunicamycin; DMSO control: Cells treated with DMSO only.

[6] = test system: XBP1 mRNA splicing in HCT 116 cells; assay: RT-qPCR of ER stress-induced XBP1 mRNA splicing, HCT 116; format: cell-based, human; conditions: HCT116
Experimental: as §1

[7] = test system: XBP1 mRNA splicing in HT-29 cells; assay: RT-qPCR of ER stress-induced XBP1 mRNA splicing, HT-29; format: cell-based, human; conditions: HT-29
Experimental: as §1

[8] = test system: IRE1α transcription level in A549 cells; assay: RT-qPCR of IRE1α transcription level, A549; format: cell-based, human; conditions: A549
Experimental: as §1

[9] = test system: IRE1α transcription level in HCT 116 cells; assay: RT-qPCR of IRE1α transcription level, HCT 116; format: cell-based, human; conditions: HCT116
Experimental: as §1

[10] = test system: IRE1α transcription level in HT-29 cells; assay: RT-qPCR of IRE1α transcription level, HT-29; format: cell-based, human; conditions: HT-29
Experimental: as §1

T2 sequence (O75460 547-977): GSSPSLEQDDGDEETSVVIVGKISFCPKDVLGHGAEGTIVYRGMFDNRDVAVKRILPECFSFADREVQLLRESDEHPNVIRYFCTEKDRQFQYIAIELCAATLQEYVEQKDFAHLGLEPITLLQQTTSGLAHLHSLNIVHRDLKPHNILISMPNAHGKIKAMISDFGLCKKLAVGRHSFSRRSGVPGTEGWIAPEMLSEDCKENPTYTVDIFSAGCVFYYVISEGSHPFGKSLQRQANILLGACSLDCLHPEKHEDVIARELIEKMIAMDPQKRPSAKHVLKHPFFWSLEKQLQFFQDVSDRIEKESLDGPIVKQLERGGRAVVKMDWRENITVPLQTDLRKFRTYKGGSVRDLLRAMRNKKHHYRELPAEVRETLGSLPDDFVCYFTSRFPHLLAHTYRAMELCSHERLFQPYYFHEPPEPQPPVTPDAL
T1 sequence (O75460 547-977): as above
T3 sequence (O75460 547-977): as above

Cc1cc(=O)oc2c(C=O)c(O)ccc12 [Compound 4μ8c]
IC50 [1]: 76 nM

CN[C@@H]1C[C@H]2O[C@@](C)([C@@H]1OC)n1c3ccccc3c3c4c(c5c6ccccc6n2c5c31)C(=O)NC4 [STS, staurosporine, reference compound]
effect on IRE1α RNase activity in the FRET assay [2]: activated the RNase activity
effect on p-IRE1α RNase activity in the FRET assay [3]: did not affect the RNase activity
effect on p-IRE1α dimerization/oligomerization [4]: did not affect the dimerization and oligomerization

CN1CCC(CNc2cc(Cl)nn3c(-c4cc5nc(Nc6ccccc6)[nH]c5cc4F)cnc23)CC1 [Compound 31]
IC50 [1]: 80 nM

CCOC(=O)CCc1c(C)n(C(=O)c2ccccc2)c2ccc(Br)cc12 [IA105]
Relative XBP1s/Actin ([5]; 0.009 μM): 2.671 and 2.32 and 2.971 and 2.381
Relative XBP1s/Actin ([5]; 0.027 μM): 2.362 and 2.303 and 2.482 and 2.4563
Relative XBP1s/Actin ([5]; 0.082 μM): 2.039 and 2.057 and 2.192 and 2.023
Relative XBP1s/Actin ([5]; 0.247 μM): 1.808 and 1.675 and 1.769 and 1.486
Relative XBP1s/Actin ([5]; 0.741 μM): 1.216 and 1.256 and 1.279 and 1.145
Relative XBP1s/Actin ([5]; 2.22 μM): 1.073 and 0.792 and 1.044 and 0.8663
Relative XBP1s/Actin ([5]; 6.67 μM): 1.0995 and 1.154 and 1.208 and 1.113
Relative XBP1s/Actin ([5]; 20 μM): 1.054 and 1.019 and 1.028 and 0.9077
Relative XBP1s/Actin ([6]; 0.009 μM): 5.428 and 5.195 and 5.7981 and 4.548
Relative XBP1s/Actin ([6]; 0.027 μM): 5.989 and 4.76 and 5.372 and 4.813
Relative XBP1s/Actin ([6]; 0.082 μM): 5.025 and 4.655 and 4.826 and 4.338
Relative XBP1s/Actin ([6]; 0.247 μM): 4.351 and 4.263 and 4.713 and 3.571
Relative XBP1s/Actin ([6]; 0.741 μM): 2.654 and 2.493 and 2.725 and 2.232
Relative XBP1s/Actin ([6]; 2.22 μM): 1.206 and 0.9713 and 1.3073 and 1.15
Relative XBP1s/Actin ([6]; 6.67 μM): 1.256 and 1.21 and 1.297 and 1.076
Relative XBP1s/Actin ([6]; 20 μM): 1.065 and 0.9931 and 0.9536 and 0.8918
Relative XBP1s/Actin ([7]; 0.003 μM): 11.684 and 10.815 and 12.821 and 10.854
Relative XBP1s/Actin ([7]; 0.009 μM): 11.469 and 10.431 and 11.317 and 10.144
Relative XBP1s/Actin ([7]; 0.027 μM): 12.267 and 11.074 and 12.013 and 10.900
Relative XBP1s/Actin ([7]; 0.082 μM): 8.652 and 8.438 and 8.782 and 8.518
Relative XBP1s/Actin ([7]; 0.247 μM): 4.629 and 4.592 and 4.962 and 3.379
Relative XBP1s/Actin ([7]; 0.741 μM): 1.283 and 1.309 and 1.516 and 1.277
Relative XBP1s/Actin ([7]; 2.22 μM): 1.103 and 1.024 and 1.015 and 0.976
Relative XBP1s/Actin ([7]; 6.67 μM): 0.958 and 0.872 and 0.904 and 0.841
Relative XBP1s/Actin ([7]; 20 μM): 1.096 and 1.163 and 1.053 and 0.889
Relative IRE1α/Actin ([8]; 0.009 μM): 1.097 and 0.928 and 1.209 and 0.916
Relative IRE1α/Actin ([8]; 0.027 μM): 1.090 and 0.987 and 1.064 and 0.939
Relative IRE1α/Actin ([8]; 0.082 μM): 1.050 and 1.155 and 1.127 and 1.034
Relative IRE1α/Actin ([8]; 0.247 μM): 1.053 and 1.161 and 1.037 and 0.961
Relative IRE1α/Actin ([8]; 0.741 μM): 0.957 and 1.053 and 0.856 and 0.910
Relative IRE1α/Actin ([8]; 2.22 μM): 1.022 and 0.873 and 1.063 and 1.025
Relative IRE1α/Actin ([8]; 6.67 μM): 0.890 and 0.939 and 0.992 and 0.722
Relative IRE1α/Actin ([8]; 20 μM): 1.131 and 1.096 and 0.934 and 0.949
Relative IRE1α/Actin ([9]; 0.009 μM): 0.982 and 0.954 and 1.279 and 1.057
Relative IRE1α/Actin ([9]; 0.027 μM): 1.271 and 1.075 and 1.281 and 1.112
Relative IRE1α/Actin ([9]; 0.082 μM): 0.845 and 0.871 and 0.924 and 0.835
Relative IRE1α/Actin ([9]; 0.247 μM): 0.966 and 1.085 and 1.076 and 0.890
Relative IRE1α/Actin ([9]; 0.741 μM): 0.990 and 1.042 and 1.123 and 0.879
Relative IRE1α/Actin ([9]; 2.22 μM): 1.133 and 1.010 and 1.231 and 1.072
Relative IRE1α/Actin ([9]; 6.67 μM): 1.059 and 0.972 and 1.144 and 0.971
Relative IRE1α/Actin ([9]; 20 μM): 1.034 and 0.915 and 0.978 and 0.882
Relative IRE1α/Actin ([10]; 0.003 μM): 1.012 and 1.008 and 1.050 and 0.980
Relative IRE1α/Actin ([10]; 0.009 μM): 0.917 and 0.954 and 1.053 and 0.909
Relative IRE1α/Actin ([10]; 0.027 μM): 1.104 and 0.811 and 1.025 and 1.043
Relative IRE1α/Actin ([10]; 0.082 μM): 0.794 and 0.825 and 1.037 and 0.844
Relative IRE1α/Actin ([10]; 0.247 μM): 0.885 and 0.861 and 0.831 and 0.823
Relative IRE1α/Actin ([10]; 0.741 μM): 0.783 and 0.766 and 0.908 and 0.750
Relative IRE1α/Actin ([10]; 2.22 μM): 0.956 and 0.812 and 1.017 and 0.944
Relative IRE1α/Actin ([10]; 6.67 μM): 0.712 and 0.683 and 0.754 and 0.735
Relative IRE1α/Actin ([10]; 20 μM): 1.089 and 1.044 and 0.863 and 0.952

CC1(c2nc(-c3ccc(NC(=O)Nc4cccc(F)c4)c4ccccc34)c3c(N)nccn23)CC1 [KIRA7]
IC50 [1]: 110 nM

COCCOCCc1c(C)c2cc(OC)c(O)c(C=O)c2oc1=O [MCK9989]
IC50 [1]: 290 nM

O=S(=O)(N=Cc1c(O)ccc2ccccc12)c1cccs1 [STF-083010]
IC50 [1]: 25000 nM

COc1cc2c(C)c(CC(=O)N3CCOCC3)c(=O)oc2c(C=O)c1O [MCK8866]
IC50 [1]: 390 nM

Cc1ccc(C)c(NC(=O)NC(C)CCc2ccc(O)cc2)c1 (stereo not drawn) [Compound Z4P]
IC50 [1]: 3140 nM
